Target: T1, human Fatty Acid Synthase (Homo sapiens, UniProt P49327)
T1 construct: made in house
Assay: Human FAS enzyme assay (decrease in NADPH fluorescence)
Assay type: biochemical
Conditions: for inhibition at 100 µM: % inhibition at a concentration of 100 μmolar; for IC50, inhibition of human Fatty Acid Synthase: FAS enzyme assay, IC50 from fitted sigmoid curves
Protocol: Human and Rat FAS Enzyme Assay.
Fatty acid synthase is an enzyme complex that harbours seven enzymatic activities catalysing the reductive synthesis of long chain fatty acids from acetyl CoA and malonyl CoA to palmitate. When acetyl CoA and malonyl CoA are forming palmitate NADPH is consumed forming NADP. Since NADPH is fluorescent but not NADP the reaction can be measured by analysing the decrease in fluorescence.
Compounds were added to a black 384 well plate (Matrix) in a volume of 5 μl consisting of 20% DMSO and 80% Tris buffer pH 7.5, at a top concentration of 1 mM. NADPH, 30 μl of 166.6 μM, formulated in assay buffer (0.1M Tris ph7.5, 0.1 mM EDTA, 1 mM glutathione, 0.05% BSA), was then added to all of the wells of the plate. Fatty acid synthase Human or rat enzyme (0.4 μg, produced in house), dissolved in 20 mM Tris/HCl pH 7.5, 5 mM BOG, 1 mM TCEP, 10% glycerol, 1 mM EDTA, 150 mM NaCl, was then added to the plate in a volume of 10 μl. Enzyme was added to all but the last two columns of the plate, to which, 10 μl of assay buffer was added (0.1M Tris ph7.5, 0.1 mM EDTA, 1 mM glutathione, 0.05% BSA) to provide a no enzyme assay control. Following a 15-minute incubation period, at room temperature, the plates were read on an Envision plate reader using 340 nm excitation and 460 nm emission filters. This served as a time zero background read. Substrates (an equal mix of both malonyl and acetyl CoA) were then added to the plates in a total volume of 5 μl. The concentrations of malonyl and acetyl CoA in the mixture were 500 μM and 150 μM respectively. Both were prepared as 10 mM stock solutions in distilled water and were subsequently diluted to working concentrations in assay buffer. Plates were then incubated for a further 60 minutes, at room temperature, before being read again on the Envision reader using the same parameters as previously used. The data was analysed by subtracting the background time zero data from that generated following the final 60 minute incubate and the percent inhibition compared to the maximum and minimum assay controls was determined. Sigmoid curves were fitted using Origin 7.5 Client software and IC50 values were determined.

T1 sequence (P49327 whole entry): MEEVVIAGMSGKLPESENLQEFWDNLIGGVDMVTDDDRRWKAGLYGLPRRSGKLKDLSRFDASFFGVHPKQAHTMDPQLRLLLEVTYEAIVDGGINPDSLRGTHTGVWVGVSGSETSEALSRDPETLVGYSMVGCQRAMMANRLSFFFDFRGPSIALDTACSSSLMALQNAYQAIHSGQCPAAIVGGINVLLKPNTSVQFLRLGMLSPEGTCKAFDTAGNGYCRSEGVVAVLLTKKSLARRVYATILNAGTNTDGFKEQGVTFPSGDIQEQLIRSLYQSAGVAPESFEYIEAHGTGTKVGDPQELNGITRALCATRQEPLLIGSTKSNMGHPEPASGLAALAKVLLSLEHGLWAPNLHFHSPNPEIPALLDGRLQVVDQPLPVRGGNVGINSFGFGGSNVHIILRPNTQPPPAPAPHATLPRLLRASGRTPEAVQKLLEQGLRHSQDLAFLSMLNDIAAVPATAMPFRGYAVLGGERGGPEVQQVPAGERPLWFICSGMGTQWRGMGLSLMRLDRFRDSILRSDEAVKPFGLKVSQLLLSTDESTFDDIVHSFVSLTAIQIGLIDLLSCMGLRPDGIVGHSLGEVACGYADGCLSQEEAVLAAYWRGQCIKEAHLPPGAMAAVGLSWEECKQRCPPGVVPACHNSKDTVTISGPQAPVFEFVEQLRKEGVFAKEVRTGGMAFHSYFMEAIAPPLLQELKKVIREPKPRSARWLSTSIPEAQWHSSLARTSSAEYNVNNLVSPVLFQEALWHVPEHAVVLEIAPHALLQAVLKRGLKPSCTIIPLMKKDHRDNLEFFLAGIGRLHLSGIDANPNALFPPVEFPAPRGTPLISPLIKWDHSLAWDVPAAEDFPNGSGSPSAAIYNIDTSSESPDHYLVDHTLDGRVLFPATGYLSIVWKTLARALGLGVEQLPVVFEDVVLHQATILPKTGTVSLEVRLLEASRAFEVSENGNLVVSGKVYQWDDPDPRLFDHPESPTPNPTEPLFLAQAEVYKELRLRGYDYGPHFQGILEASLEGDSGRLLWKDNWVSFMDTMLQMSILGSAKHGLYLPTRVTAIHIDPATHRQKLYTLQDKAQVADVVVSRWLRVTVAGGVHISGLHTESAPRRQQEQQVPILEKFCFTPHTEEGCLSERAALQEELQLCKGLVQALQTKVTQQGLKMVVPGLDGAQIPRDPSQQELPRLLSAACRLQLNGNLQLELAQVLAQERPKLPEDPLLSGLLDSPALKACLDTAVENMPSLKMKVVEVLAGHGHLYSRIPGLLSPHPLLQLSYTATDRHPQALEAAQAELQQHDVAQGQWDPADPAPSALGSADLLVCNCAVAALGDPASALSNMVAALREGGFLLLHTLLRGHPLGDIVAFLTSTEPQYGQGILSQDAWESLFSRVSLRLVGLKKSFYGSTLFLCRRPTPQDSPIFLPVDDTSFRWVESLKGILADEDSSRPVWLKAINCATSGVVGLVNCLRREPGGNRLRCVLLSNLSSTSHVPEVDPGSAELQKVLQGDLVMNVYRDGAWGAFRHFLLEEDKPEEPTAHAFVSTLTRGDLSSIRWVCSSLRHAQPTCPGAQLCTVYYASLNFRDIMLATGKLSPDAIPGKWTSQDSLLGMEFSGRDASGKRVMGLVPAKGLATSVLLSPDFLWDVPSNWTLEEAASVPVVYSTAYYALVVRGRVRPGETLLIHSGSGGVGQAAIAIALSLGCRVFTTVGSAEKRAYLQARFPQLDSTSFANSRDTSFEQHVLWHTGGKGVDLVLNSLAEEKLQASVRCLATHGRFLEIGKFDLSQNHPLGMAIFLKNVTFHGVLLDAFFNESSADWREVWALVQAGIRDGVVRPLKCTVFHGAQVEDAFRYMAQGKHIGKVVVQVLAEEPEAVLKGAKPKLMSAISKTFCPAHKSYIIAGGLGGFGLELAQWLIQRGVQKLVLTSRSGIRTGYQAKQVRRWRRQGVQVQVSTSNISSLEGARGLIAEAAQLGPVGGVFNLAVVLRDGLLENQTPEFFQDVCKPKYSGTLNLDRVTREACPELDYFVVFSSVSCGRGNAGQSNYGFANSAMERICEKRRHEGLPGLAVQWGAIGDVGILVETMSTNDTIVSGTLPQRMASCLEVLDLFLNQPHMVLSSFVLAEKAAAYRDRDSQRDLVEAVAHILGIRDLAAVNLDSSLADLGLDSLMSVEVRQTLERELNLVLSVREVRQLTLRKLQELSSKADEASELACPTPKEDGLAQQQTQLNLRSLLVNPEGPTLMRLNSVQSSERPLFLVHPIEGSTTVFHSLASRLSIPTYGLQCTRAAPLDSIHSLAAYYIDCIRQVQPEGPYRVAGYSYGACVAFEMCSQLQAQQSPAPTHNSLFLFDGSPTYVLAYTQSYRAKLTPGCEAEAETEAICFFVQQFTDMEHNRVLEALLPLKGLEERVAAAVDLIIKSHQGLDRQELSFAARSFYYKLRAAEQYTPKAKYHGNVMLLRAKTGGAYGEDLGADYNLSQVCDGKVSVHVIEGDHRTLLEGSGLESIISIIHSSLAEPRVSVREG

SMILES	inhibition at 100 µM [%]	IC50, inhibition of human Fatty Acid Synthase
CCS(=O)(=O)N[C@@H]1CCCC[C@@H]1NC(=O)Nc1cc(C(=O)N2CCC(c3ccc(C#N)cc3)CC2)ccc1C (relative stereo) [Example 309, 3-[5-[4-(4-cyanophenyl)piperidine-1-carbonyl]-2-methyl-phenyl]-1-[(cis)-2-(ethylsulfonylamino)cyclohexyl]urea]	96.7	–
Cc1ccc(C(=O)N2CCC(c3ccc(C#N)cc3)CC2)cc1NC(=O)N[C@H]1CCCC[C@@H]1NS(C)(=O)=O (relative stereo) [Example 315, 1-[5-[4-(4-cyanophenyl)piperidine-1-carbonyl]-2-methyl-phenyl]-3-[(trans)-2-methanesulfonamidocyclohexyl]urea]	104	–
Cc1ccc(C(=O)N2CCC(c3ccc(C#N)cc3)CC2)cc1NC(=O)N[C@@H]1CCCC[C@@H]1NS(=O)(=O)N(C)C (relative stereo) [Example 317, 1-[5-[4-(4-cyanophenyl)piperidine-1-carbonyl]-2-methyl-phenyl]-3-[(cis)-2-(dimethylsulfamoylamino)cyclohexyl]urea]	94.9	–
Cc1ccc(C(=O)N2CCC(c3ccc(C#N)cc3)CC2)cc1NC(=O)N[C@@H]1CCCC[C@H]1NS(=O)(=O)N(C)C (relative stereo) [Example 319, 1-[5-[4-(4-cyanophenyl)piperidine-1-carbonyl]-2-methyl-phenyl]-3-[(trans)-2-(dimethylsulfamoylamino)cyclohexyl]urea]	84.3	–
CC(=O)N[C@@H]1CCCC[C@H]1NC(=O)Nc1cc(C(=O)N2CCC(c3ccc(C#N)cc3)CC2)ccc1C (relative stereo) [N-[(trans)-2-[[5-[4-(4-cyanophenyl)piperidine-1-carbonyl]-2-methylphenyl]carbamoylamino]cyclohexyl]acetamide]	–	do not have IC50s in the range of about 0.001 μM to about 30 μM
Cc1ccc(C(=O)N2CCC(c3ccc(C#N)cc3)CC2)cc1NC(=O)NC1CN2CCC1CC2 (stereo in doubt) [Example 270, 3-[(8S)-1-azabicyclo[2.2.2]oct-8-yl]-1-[5-[4-(4-cyanophenyl)piperidine-1-carbonyl]-2-methyl-phenyl]urea]	89.4	–
Cc1ccc(C(=O)N2CCC(O)(c3ccccc3)CC2)cc1NC(=O)NC(C)C [1-[5-(4-hydroxy-4-phenylpiperidine-1-carbonyl)-2-methylphenyl]-3-propan-2-ylurea]	–	do not have IC50s in the range of about 0.001 μM to about 30 μM
Cc1ccc(C(=O)N2CCC(c3ccccc3C#N)CC2)cc1NC(=O)NC(C)C [1-[5-[4-(2-cyanophenyl)piperidine-1-carbonyl]-2-methylphenyl]-3-propan-2-ylurea]	–	do not have IC50s in the range of about 0.001 μM to about 30 μM
Cc1ccc(C(=O)N2CCC(O)(c3ccccc3F)CC2)cc1NC(=O)NC(C)C [1-[5-[4-(2-fluorophenyl)-4-hydroxypiperidine-1-carbonyl]-2-methylphenyl]-3-propan-2-ylurea]	–	do not have IC50s in the range of about 0.001 μM to about 30 μM
COc1ccccc1C1CCN(C(=O)c2ccc(C)c(NC(=O)NC(C)C)c2)CC1 [1-[5-[4-(2-methoxyphenyl)piperidine-1-carbonyl]-2-methylphenyl]-3-propan-2-ylurea]	–	do not have IC50s in the range of about 0.001 μM to about 30 μM
Cc1ccc(C(=O)N2CCC(c3cccc(Cl)c3)CC2)cc1NC(=O)NC(C)C [1-[5-[4-(3-chlorophenyl)piperidine-1-carbonyl]-2-methylphenyl]-3-propan-2-ylurea]	–	do not have IC50s in the range of about 0.001 μM to about 30 μM
Cc1ccc(C(=O)N2CCC(c3cccc(F)c3)CC2)cc1NC(=O)NC(C)C [1-[5-[4-(3-fluorophenyl)piperidine-1-carbonyl]-2-methylphenyl]-3-propan-2-ylurea]	–	do not have IC50s in the range of about 0.001 μM to about 30 μM
COc1cccc(C2CCN(C(=O)c3ccc(C)c(NC(=O)NC(C)C)c3)CC2)c1 [1-[5-[4-(3-methoxyphenyl)piperidine-1-carbonyl]-2-methylphenyl]-3-propan-2-ylurea]	–	do not have IC50s in the range of about 0.001 μM to about 30 μM
Cc1ccc(C(=O)N2CCC(O)(c3cccc(C(F)(F)F)c3)CC2)cc1NC(=O)NC(C)C [1-[5-[4-hydroxy-4-[3-(trifluoromethyl)phenyl]piperidine-1-carbonyl]-2-methylphenyl]-3-propan-2-ylurea]	–	do not have IC50s in the range of about 0.001 μM to about 30 μM
COc1ccc(NC(=O)NC(C)C)cc1C(=O)N1CCC(c2ccc(C#N)cc2)CC1 [3-[3-[4-(4-cyanophenyl)piperidine-1-carbonyl]-4-methoxyphenyl]-1-propan-2-ylurea]	–	do not have IC50s in the range of about 0.001 μM to about 30 μM
CC(C)NC(=O)Nc1ccc([S+](C)[O-])c(C(=O)N2CCC(c3ccc(C#N)cc3)CC2)c1 (stereo not drawn) [3-[3-[4-(4-cyanophenyl)piperidine-1-carbonyl]-4-methylsulfinylphenyl]-1-propan-2-ylurea]	–	do not have IC50s in the range of about 0.001 μM to about 30 μM
CC(C)NC(=O)Nc1ccc(S(C)(=O)=O)c(C(=O)N2CCC(c3ccc(C#N)cc3)CC2)c1 [3-[3-[4-(4-cyanophenyl)piperidine-1-carbonyl]-4-methylsulfonylphenyl]-1-propan-2-ylurea]	–	do not have IC50s in the range of about 0.001 μM to about 30 μM
Cc1ccc(C(=O)N2CCC(c3ccc(C#N)cc3)CC2)cc1NC(=O)N(C)C [3-[5-[4-(4-cyanophenyl)piperidine-1-carbonyl]-2-methylphenyl]-1,1-dimethylurea]	–	do not have IC50s in the range of about 0.001 μM to about 30 μM
Cc1ccc(C(=O)N2CCC(c3ccc(C#N)cc3)CC2)cc1NC(=O)N(C)C(C)(C)C#N [3-[5-[4-(4-cyanophenyl)piperidine-1-carbonyl]-2-methylphenyl]-1-(2-cyanopropan-2-yl)-1-methylurea]	–	do not have IC50s in the range of about 0.001 μM to about 30 μM
COCCN(C)C(=O)Nc1cc(C(=O)N2CCC(c3ccc(C#N)cc3)CC2)ccc1C [3-[5-[4-(4-cyanophenyl)piperidine-1-carbonyl]-2-methylphenyl]-1-(2-methoxyethyl)-1-methylurea]	–	do not have IC50s in the range of about 0.001 μM to about 30 μM
Cc1ccc(C(=O)N2CCC(c3ccc(C#N)cc3)CC2)cc1NC(=O)N(C1CC1)C1CCS(=O)(=O)C1 (stereo not drawn) [3-[5-[4-(4-cyanophenyl)piperidine-1-carbonyl]-2-methylphenyl]-1-cyclopropyl-1-(1,1-dioxothiolan-3-yl)urea]	–	do not have IC50s in the range of about 0.001 μM to about 30 μM
Cc1ccc(C(=O)N2CCC(c3ccc(C#N)cc3)CC2)cc1NC(=O)N(C)CC1CCCO1 (stereo not drawn) [3-[5-[4-(4-cyanophenyl)piperidine-1-carbonyl]-2-methylphenyl]-1-methyl-1-(oxolan-2-ylmethyl)urea]	–	do not have IC50s in the range of about 0.001 μM to about 30 μM
COc1ccc(NC(=O)NCc2ccccc2)cc1C(=O)N1CCC(c2ccc(C#N)cc2)CC1 [3-benzyl-1-[3-[4-(4-cyanophenyl)piperidine-1-carbonyl]-4-methoxyphenyl]urea]	–	do not have IC50s in the range of about 0.001 μM to about 30 μM
CS(=O)(=O)c1ccc(C(=O)N2CCC(c3ccc(C#N)cc3)CC2)cc1NC(=O)NCc1ccccc1 [3-benzyl-1-[5-[4-(4-cyanophenyl)piperidine-1-carbonyl]-2-methylsulfonylphenyl]urea]	–	do not have IC50s in the range of about 0.001 μM to about 30 μM
CCOC(=O)[C@H](CO)NC(=O)Nc1cc(C(=O)N2CCC(c3ccc(C#N)cc3)CC2)ccc1C [Ethyl (2S)-2-[[5-[4-(4-cyanophenyl)piperidine-1-carbonyl]-2-methylphenyl]carbamoylamino]-3-hydroxypropanoate]	–	do not have IC50s in the range of about 0.001 μM to about 30 μM
CCCCNC(=O)Nc1cc(C(=O)N2CCC(c3ccc(C#N)cc3)CC2)ccc1C [Example 1, 1-butyl-3-[5-[4-(4-cyanophenyl)piperidine-1-carbonyl]-2-methyl-phenyl]urea]	95.6	–
Cc1ccc(C(=O)N2CCC(c3ccc(C#N)cc3)CC2)cc1NC(=O)N1CCOCC1 [Example 2, N-[5-[4-(4-cyanophenyl)piperidine-1-carbonyl]-2-methyl-phenyl]morpholine-4-carboxamide]	79.7	–
